The source of these data is ChEMBL document CHEMBL1201862, “PubChem BioAssay data set” (2004).

The source made the active and inactive calls.

In assay [1] the target is Dual specificity protein kinase CLK1 (Homo sapiens, UniProt P49759). Briefly: inhibition of human CLK1 activity – biochemical, cherry-picked samples, selectivity assay for Dyrk1A inhibitor project, dose response (AID 588811).
For assay [2], the target named is T1, Rac GTPase-activating protein 1 (Homo sapiens, UniProt Q9H0H5).
T1 sequence (Q9H0H5 whole entry): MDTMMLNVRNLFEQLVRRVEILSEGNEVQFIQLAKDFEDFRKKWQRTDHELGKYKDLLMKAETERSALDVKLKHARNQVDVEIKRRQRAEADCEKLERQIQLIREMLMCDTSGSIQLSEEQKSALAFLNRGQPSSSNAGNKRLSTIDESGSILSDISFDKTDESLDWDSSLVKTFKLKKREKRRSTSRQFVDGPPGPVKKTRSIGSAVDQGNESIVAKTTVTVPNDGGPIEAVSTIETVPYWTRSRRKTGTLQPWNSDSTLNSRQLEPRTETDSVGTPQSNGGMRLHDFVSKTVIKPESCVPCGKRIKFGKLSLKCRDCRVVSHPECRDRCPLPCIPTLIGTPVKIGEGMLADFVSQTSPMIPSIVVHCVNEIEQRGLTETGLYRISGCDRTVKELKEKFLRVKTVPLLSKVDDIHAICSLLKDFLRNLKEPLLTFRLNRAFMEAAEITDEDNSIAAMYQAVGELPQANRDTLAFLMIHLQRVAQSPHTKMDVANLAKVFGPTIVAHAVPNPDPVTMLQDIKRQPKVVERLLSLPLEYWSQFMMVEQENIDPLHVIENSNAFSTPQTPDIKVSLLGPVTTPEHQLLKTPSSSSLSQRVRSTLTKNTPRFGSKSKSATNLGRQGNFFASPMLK
Briefly: blockers of MgcRacGAP-driven Rac1 GTP hydrolysis – biochemical, ADP Hunter fluorescence, primary and confirmatory, confirmation (AID 624330). Type of assay: functional.

Assay [3] relates to HeLa. Briefly: ATP-based viability loss in HeLa cells – cell-based, CellTiter-Glo luminescence, cherry-pick samples, cytotoxicity control for MITF activator project, dose response (AID 540259). The format is functional. The settings on record: Homo sapiens.
The target of assay [4] is Acyl-homoserine lactone acylase PvdQ (Pseudomonas aeruginosa (strain LESB58), UniProt Q9I194). Briefly: PvdQ acylase enzyme activity blockers – biochemical, fluorescence, plate reader and imaging, cherry-picks, dose response (AID 493231).
The subject of assay [5] is HeLa. Briefly: toxicity to human HeLa cells – cell-based, 48 h, plate reader, cherry-picks, cytotoxicity control, dose response (AID 504942). The format is functional.
Assay [6] concerns the target Type-1 angiotensin II receptor (Homo sapiens, UniProt P30556). Briefly: antagonism of angiotensin II type 1 receptor – cell-based, uHTS hits, selectivity assay for APJ receptor antagonist project, dose response (AID 463214).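 Further: antagonist potency against angiotensin II stimulated AT1 response.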 Type of assay: functional.
In assay [7] the target is Beta-galactosidase (Escherichia coli, UniProt Q8VNN2). Briefly: PubChem AID 485352. Type of assay: functional.
Assay [8] concerns the target Potassium voltage-gated channel subfamily KQT member 2/member 3 (Rattus norvegicus, UniProt O88943+O88944). Briefly: Mode of action assay-Dose response assay for KCNQ2 activators in the KCNQ2/KCNQ3 co-expressing cells on automated patch clamp. [Related pubchem assays (depositor defined):AID2239, AID2258, AID2287]. Type of assay: functional.
Assay [9] concerns the target T2, Potassium voltage-gated channel subfamily KQT member 4 (Homo sapiens, UniProt P56696). Briefly: KCNQ4 thallium flux concentration-response – KCNQ4-expressing cells, selectivity assay for KCNQ2 activator project, dose response (AID 504416). The format is functional, cell-based.
The target in assay [10] is Potassium voltage-gated channel subfamily KQT member 2 (Rattus norvegicus, UniProt O88943). Briefly: Mode of action assay-Dose response assay for compounds that activate KCNQ2 potassium channels on automated patch clamp. [Related pubchem assays (depositor defined):AID2239, AID2258, AID2287, AID493113]. The format is functional.
Assay [11] concerns the target T2, Potassium voltage-gated channel subfamily KQT member 4. Briefly: activation of KCNQ4 potassium current – automated patch clamp, CHO cells, selectivity assay for KCNQ2 activator project, dose response (AID 493043). The format is functional, cell-based. On the technique in general: In patch-clamp work, channel activity is measured electrically.
In assay [12] the target is Cytochrome P450 2C19 (Homo sapiens, UniProt P33261). Briefly: Cytochrome panel assay with activity outcomes. Panel member name: p450-cyp2c19 Compounds with AC50 equal or less than 10 uM are considered active. The format is functional. The settings on record: read-out: AC50.
The target in assay [13] is T3, Cytochrome P450 1A2 (Homo sapiens, UniProt P05177).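 Further: PubChem cytochrome P450 panel assay, CYP1A2 panel member.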
T3 sequence (P05177 whole entry): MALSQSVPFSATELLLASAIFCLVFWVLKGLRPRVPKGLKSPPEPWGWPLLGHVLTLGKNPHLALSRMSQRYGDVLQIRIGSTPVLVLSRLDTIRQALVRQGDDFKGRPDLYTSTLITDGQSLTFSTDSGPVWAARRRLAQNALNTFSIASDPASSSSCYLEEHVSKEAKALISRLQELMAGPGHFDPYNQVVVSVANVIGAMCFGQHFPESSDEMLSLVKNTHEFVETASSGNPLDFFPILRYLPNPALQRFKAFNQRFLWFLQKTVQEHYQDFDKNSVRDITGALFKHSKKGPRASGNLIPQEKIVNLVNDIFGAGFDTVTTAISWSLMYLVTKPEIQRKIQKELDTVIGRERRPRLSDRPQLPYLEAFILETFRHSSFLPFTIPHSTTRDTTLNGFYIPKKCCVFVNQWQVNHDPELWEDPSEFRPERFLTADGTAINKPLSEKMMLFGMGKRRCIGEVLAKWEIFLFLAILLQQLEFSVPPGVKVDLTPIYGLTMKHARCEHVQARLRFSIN

For assay [14], the target named is Voltage-gated inwardly rectifying potassium channel KCNH2 (Homo sapiens, UniProt Q12809). The settings on record: Potency.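 Further: confirmatory quantitative high-throughput screen measuring inhibition of hERG channel activity.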
The nature of assay [15]: viability loss in HepG2 hepatoma cells – cell-based, ATP luminescence, cherry-pick, activator set 2, cytotoxicity control, dose response (AID 1053143). Type of assay: functional.
A short description of assay [16]: Luminescence Cell-Based Dose Response HTS to Identify Activators of Luciferase Translation or Activity in H4 […] Cells. [Related pubchem assays: 1829 (Project Summary), 1814 (Primary HTS)]. The format is functional.
Assay [17] in a line: Luminescence Cell-Based Dose Confirmation HTS to Identify Activators of 5'UTR Stem-Loop Driven Alpha-Synuclein mRNA Translation in H4 Neuroglioblastoma Cells. [Related pubchem assays: 1829 (Project Summary), 1814 (Primary HTS)]. Type of assay: functional.
A short description of assay [18]: cells. Type of assay: functional, cell-based.
Assay [19] has as its system HEK293. Briefly: cells. The settings on record: Homo sapiens. Type of assay: functional, cell-based.
For assay [20], the target named is Nuclear receptor subfamily 0 group B member 1 (Homo sapiens, UniProt P51843). Briefly: Luminescence-based cell-based high throughput dose response assay for inhibitors of the orphan nuclear receptor subfamily 0, group B, member 1 (DAX1; NR0B1). [Related pubchem assays (depositor defined):AID504766, AID504790]. The format is functional.
The subject of assay [21] is H4. Briefly: Luminescence Cell-Based Dose Response HTS to Identify Activators of 5'UTR Stem-Loop Driven Prion Protein mRNA Translation in H4 Neuroglioblastoma Cells. [Related pubchem assays: 1829 (Project Summary), 1814 (Primary HTS)]. Type of assay: functional. The settings on record: Homo sapiens.
A short description of assay [22]: cells. The format is functional, cell-based. The source holds these as a separate data set.
Assay [23] concerns the target T4, Short transient receptor potential channel 4 (Mus musculus, UniProt Q9QUQ5).
T4 sequence (Q9QUQ5 whole entry): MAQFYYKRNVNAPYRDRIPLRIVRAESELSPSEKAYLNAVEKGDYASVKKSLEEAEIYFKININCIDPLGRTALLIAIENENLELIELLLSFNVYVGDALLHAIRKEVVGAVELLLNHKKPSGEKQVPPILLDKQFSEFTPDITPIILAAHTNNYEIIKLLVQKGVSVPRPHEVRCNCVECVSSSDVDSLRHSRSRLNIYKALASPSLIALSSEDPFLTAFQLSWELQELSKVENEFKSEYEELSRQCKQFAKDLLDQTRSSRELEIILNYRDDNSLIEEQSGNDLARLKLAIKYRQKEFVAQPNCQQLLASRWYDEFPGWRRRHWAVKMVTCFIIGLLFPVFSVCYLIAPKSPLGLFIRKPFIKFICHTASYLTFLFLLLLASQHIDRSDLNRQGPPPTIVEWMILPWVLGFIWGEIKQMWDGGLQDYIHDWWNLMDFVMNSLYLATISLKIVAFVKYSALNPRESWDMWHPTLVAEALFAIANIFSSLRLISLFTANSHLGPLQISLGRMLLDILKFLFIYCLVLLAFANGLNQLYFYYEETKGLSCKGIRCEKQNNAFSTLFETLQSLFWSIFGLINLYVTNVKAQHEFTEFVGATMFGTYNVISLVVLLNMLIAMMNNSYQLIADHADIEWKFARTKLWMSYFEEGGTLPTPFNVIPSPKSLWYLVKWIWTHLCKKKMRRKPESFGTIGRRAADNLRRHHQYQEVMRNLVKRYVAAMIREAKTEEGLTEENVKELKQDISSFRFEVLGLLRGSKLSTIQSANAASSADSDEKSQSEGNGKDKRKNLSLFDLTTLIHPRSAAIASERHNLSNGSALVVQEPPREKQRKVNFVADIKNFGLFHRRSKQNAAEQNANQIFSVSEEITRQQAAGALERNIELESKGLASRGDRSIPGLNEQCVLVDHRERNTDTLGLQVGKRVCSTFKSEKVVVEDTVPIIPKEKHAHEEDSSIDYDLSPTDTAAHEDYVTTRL
Briefly: SAR Analysis for the identification of selective inhibits of the transient receptor potential cation channel C4 (TRPC4): Automated Electrophysiology. [Related pubchem assays (depositor defined):AID2256]. Type of assay: functional.

Assay [24] addresses T4, Short transient receptor potential channel 4. Briefly: potency of mouse TRPC4 calcium flux blockers – cell-based, HEK293 TRPC4/mu-opioid, DAMGO stimulus, Fluo-4, dose response (AID 492994). Type of assay: functional.
For assay [25] the target is unchanged. Briefly: SAR Analysis for the identification of selective inhibitors of the transient receptor potential cation channel C4 (TRPC4): TRPC4 Serotonin Receptor CRC MPD assay. [Related pubchem assays (depositor defined):AID2247, AID2256]. Type of assay: functional.
Assay [26] has the same target. Briefly: mouse TRPC4 block via Gq-coupled stimulation – cell-based, acetylcholine stimulus, HEK293 TRPC4, Fluo-4, SAR follow-up (AID 492996). The format is functional.
In assay [27] the target is Short transient receptor potential channel 6 (Mus musculus, UniProt Q61143). Briefly: mouse TRPC6 channel blockers, concentration series – HEK293 cells, membrane potential dye, IC50, selectivity assay for selective TRPC4 inhibitor project, dose response (AID 492987). The format is functional, cell-based.
Short transient receptor potential channel 6, sequence (Q61143 whole entry): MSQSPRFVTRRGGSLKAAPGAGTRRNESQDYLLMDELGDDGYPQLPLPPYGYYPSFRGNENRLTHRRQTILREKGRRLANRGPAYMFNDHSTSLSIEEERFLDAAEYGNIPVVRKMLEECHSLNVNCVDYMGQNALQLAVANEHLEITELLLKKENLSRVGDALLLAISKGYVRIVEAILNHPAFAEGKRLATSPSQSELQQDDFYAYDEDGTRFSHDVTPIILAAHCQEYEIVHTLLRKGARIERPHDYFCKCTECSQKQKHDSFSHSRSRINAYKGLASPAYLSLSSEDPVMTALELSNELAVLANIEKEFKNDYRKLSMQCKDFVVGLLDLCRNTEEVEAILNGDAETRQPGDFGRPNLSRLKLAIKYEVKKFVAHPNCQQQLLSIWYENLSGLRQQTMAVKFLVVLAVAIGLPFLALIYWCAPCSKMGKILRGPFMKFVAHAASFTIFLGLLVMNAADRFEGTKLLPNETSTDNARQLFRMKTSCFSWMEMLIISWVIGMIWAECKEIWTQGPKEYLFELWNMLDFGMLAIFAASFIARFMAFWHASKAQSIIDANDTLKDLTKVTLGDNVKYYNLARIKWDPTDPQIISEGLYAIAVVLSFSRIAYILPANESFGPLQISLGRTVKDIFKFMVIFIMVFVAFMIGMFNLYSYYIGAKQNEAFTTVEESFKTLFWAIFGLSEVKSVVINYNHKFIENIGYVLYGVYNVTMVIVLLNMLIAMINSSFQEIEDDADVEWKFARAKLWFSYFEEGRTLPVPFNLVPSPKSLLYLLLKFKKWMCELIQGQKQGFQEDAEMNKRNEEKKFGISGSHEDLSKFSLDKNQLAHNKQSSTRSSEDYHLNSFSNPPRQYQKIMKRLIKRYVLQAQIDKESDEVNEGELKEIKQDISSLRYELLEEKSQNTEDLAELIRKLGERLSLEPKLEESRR

T2 sequence (P56696 whole entry): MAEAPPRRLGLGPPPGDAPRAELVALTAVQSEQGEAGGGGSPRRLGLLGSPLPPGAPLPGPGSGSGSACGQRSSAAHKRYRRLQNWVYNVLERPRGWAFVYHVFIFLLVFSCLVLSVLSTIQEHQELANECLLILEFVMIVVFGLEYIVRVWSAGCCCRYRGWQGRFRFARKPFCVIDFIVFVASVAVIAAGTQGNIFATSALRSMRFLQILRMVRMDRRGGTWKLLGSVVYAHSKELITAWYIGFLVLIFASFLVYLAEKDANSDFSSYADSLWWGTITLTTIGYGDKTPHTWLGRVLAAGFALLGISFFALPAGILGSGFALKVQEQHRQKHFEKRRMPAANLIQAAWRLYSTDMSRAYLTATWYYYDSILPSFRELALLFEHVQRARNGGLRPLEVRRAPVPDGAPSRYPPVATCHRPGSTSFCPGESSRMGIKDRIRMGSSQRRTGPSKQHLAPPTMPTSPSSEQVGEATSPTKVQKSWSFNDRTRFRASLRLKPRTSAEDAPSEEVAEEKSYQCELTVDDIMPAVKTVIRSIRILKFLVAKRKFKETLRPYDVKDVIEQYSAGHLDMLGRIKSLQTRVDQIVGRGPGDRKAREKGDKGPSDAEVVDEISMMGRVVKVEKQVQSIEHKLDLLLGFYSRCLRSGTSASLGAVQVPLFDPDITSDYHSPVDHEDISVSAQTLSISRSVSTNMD
Dual specificity protein kinase CLK1, sequence (P49759 whole entry): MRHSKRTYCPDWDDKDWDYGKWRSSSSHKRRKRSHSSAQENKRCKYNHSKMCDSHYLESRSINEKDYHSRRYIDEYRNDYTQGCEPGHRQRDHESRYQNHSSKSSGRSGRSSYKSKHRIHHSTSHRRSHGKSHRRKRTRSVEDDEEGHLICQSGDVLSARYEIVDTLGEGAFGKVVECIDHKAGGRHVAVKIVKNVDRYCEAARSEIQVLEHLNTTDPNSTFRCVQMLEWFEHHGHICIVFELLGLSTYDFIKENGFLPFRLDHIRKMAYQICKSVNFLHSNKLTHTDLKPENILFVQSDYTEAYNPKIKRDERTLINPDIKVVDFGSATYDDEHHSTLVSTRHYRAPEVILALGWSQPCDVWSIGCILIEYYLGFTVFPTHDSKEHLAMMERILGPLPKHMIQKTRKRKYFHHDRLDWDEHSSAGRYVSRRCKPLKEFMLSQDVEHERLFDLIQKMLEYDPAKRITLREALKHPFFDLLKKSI
Potassium voltage-gated channel subfamily KQT member 2, sequence (O88943 whole entry): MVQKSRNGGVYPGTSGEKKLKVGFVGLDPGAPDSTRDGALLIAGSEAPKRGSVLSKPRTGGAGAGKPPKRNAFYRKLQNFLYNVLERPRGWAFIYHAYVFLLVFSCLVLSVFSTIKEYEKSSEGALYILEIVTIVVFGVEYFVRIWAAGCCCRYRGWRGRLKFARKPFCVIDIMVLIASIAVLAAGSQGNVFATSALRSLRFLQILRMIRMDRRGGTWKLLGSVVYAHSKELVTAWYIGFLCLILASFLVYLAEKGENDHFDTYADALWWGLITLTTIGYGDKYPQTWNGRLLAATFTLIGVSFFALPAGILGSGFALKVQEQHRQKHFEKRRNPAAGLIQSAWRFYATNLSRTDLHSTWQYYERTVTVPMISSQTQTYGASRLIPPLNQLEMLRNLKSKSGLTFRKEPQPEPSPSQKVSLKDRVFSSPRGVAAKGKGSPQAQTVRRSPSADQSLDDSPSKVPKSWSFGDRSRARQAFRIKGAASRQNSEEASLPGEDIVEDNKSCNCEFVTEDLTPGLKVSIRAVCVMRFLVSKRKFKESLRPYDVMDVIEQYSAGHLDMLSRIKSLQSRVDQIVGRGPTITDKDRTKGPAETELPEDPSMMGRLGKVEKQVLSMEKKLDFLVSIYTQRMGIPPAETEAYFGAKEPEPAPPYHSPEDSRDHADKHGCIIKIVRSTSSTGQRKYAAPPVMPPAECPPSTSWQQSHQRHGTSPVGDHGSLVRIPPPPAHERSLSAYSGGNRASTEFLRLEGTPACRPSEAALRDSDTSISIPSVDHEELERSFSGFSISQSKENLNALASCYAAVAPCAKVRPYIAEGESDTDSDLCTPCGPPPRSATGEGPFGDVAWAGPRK
Potassium voltage-gated channel subfamily KQT member 2/member 3, sequence (O88943 whole entry): as above
Potassium voltage-gated channel subfamily KQT member 2/member 3, sequence (O88944 whole entry): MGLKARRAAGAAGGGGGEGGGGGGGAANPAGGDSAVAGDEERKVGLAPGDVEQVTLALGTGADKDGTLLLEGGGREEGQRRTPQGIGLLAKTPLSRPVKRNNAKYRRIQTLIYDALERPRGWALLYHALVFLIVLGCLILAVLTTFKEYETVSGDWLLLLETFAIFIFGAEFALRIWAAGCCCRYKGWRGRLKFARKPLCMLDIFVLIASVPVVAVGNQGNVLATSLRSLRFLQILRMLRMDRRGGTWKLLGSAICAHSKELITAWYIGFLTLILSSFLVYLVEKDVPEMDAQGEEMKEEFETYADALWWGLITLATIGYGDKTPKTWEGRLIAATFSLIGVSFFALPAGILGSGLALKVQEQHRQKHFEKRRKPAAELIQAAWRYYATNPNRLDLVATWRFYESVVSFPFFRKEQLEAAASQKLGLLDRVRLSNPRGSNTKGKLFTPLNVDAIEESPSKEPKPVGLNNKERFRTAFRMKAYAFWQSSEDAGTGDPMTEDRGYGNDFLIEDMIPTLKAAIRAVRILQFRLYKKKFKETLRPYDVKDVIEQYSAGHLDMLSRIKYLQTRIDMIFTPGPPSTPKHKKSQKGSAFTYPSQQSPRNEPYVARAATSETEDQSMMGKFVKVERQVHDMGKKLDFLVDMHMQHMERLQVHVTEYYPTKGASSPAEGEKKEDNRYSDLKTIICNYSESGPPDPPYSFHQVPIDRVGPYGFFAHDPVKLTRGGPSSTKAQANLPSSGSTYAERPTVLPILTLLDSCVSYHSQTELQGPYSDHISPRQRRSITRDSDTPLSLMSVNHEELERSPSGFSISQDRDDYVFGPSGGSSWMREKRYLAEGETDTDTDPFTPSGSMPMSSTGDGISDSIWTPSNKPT
Nuclear receptor subfamily 0 group B member 1, sequence (P51843 whole entry): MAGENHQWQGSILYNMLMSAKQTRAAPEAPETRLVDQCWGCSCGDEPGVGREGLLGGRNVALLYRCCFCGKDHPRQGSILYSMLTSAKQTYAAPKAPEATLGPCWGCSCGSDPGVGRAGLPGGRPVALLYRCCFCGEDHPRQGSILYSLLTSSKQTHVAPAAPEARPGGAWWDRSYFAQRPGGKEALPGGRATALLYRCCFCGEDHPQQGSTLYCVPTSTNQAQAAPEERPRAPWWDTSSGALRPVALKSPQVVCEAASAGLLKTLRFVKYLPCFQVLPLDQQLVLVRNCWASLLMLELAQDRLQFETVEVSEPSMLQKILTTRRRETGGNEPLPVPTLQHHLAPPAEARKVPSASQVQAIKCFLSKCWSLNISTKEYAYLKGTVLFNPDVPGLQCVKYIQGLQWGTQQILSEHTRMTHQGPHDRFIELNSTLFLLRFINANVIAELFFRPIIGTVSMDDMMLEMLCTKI
Type-1 angiotensin II receptor, sequence (P30556 whole entry): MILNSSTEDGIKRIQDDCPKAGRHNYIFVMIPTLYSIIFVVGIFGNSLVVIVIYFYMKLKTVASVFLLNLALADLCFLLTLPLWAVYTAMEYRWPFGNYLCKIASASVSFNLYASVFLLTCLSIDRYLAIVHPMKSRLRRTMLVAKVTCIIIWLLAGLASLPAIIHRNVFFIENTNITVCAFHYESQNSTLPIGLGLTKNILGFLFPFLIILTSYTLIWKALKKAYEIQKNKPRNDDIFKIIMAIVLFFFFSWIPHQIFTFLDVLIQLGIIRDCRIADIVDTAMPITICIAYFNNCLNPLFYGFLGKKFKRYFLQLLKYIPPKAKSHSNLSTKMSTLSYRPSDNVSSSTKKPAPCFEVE

A word on the AC50: it is the midpoint of the concentration-response curve, whichever way the signal moves. As to `CN(C)S(=O)(=O)c1ccc(Cl)c(C(=O)Nc2cccc3ncccc23)c1`, the AC50 in assay [1] was 1.84 µM (active).
The IC50 is the concentration at which inhibition is half-maximal. For `O=C(Nc1ccc(O)cc1)c1cc2ccccc2c(=O)s1`, the IC50 in [2] was 23.3 µM (active). Besides, the AC50 in assay [3] was > 350 µM (inactive).
For `O=C(Nc1ncc([N+](=O)[O-])s1)c1cccc([N+](=O)[O-])c1`, the AC50 in assay [4] is 10.3 µM (active); in assay [5], 23.1 µM (active).
What is called EC50 is the midpoint of the concentration-response curve. For `CC(=O)Oc1ccc(/C=C2/SC(=S)N(Cc3ccccc3)C2=O)cc1`, in assay [6], the IC50 is listed as > 40 µM (not active). In assay [7], the EC50 is > 40 µM (inactive).
Take `CCCCC(=O)Nc1c(C)cc(C)cc1Cl`: the EC50 in [8] was 2.69 µM (active); in assay [9], 18.7 µM (active); in assay [10], 2.14 µM (active); in assay [11], 3.15 µM (active).
Turning to `COc1ccc2c(c1)c(CC(=O)N1CCOCC1)c(C)n2C(=O)c1ccc(Cl)cc1` [INDOMETHACIN MORPHOLINYLAMIDE], the values for the AC50 in [12], in assay [13] and in assay [14] were 1.58 µM (inconclusive), 25.1 µM (inconclusive) and 35.5 µM (inconclusive), respectively.
For `O=C(Nc1ccccc1O)c1ccc(NC(=O)C2CC2)cc1`, the AC50 in assay [15] is 18.8 µM (active). Moreover, the EC50 was 17.3 µM (active) in assay [16]; 10.5 µM (active) in [17]; 11.2 µM (active) in assay [18]; 12.3 µM (active) in assay [21]; 51.3 µM (active) in [22]. Also, the values for the IC50 in [19] and in assay [20] were 1.91 µM (active) and > 67.6 µM (inactive), respectively.
On to `CCc1ccc2nc(N3CCCC3)cc(C)c2c1`, for which the IC50 in assay [23] was 2.05 µM (active); in [24], 0.483 µM (active); in assay [25] it was 4.23 µM (active); in assay [26] it was 9.52 µM (active); in assay [27], 14.1 µM (active).
